The values below are quoted from earlier work in patent publication US9662315B2, “Ameliorating drug-induced elevations in blood pressure by adjunctive use of antihypertensive drugs” (Kitov Pharmaceuticals Ltd., priority 2008, dated 2017).

For this series the following is noted: per FDA approved drug labeling; rofecoxib compared with placebo control patients.

Regarding `Cc1ccc(-c2cc(C(F)(F)F)nn2-c2ccc(S(N)(=O)=O)cc2)cc1` [celecoxib], the “high blood pressure / hypertension rate in treated patients” value is given as “increased rate of hypertension”.
In the case of `CS(=O)(=O)c1ccc(C2=C(c3ccccc3)C(=O)OC2)cc1` [rofecoxib], the “high blood pressure / hypertension rate in treated patients” value is reported as “occurring more frequently”.
